Experimental data reported in article PMC3243694, “Integrated Dataset of Screening Hits against Multiple Neglected Disease Pathogens” (PLoS Neglected Tropical Diseases, 2011).
≈ marks a conversion by molar mass, not a printed value.

Columns and labels:
[1] = tested on: MRC-5 cell line (diploid human embryonic lung fibroblast); assay: Cytotoxicity on MRC-5 cells; type: cell-based
Excerpt: [table] An important part of the screen is the evaluation of all compounds for cytotoxicity using the diploid human embryonic lung fibroblast MRC-5 cell line (Figure 2). Further evaluation of cytotoxicity also takes advantage of the assays for intracellular protozoan parasites, as in the case of L. infantum and T. cruzi, which include murine peritoneal macrophage host cells and MRC-5SV2 human lung fibroblast cells, respectively, in the culture system.

[2] = tested on: Plasmodium falciparum K1 strain; assay: Anti-Plasmodium activity assay (Malstat); type: cell-based; conditions: P. falciparum K1, 72 h
Description: (§1) The compound set was tested against the following parasites: intra-erythrocytic forms in human red blood cells of P. falciparum K1 strain (malaria), [16], [32], [33], [35], bloodstream forms of T. brucei Squib 427 strain (human African trypanosomiasis, HAT), [31], [32], [34], intracellular amastigotes of T. cruzi Tulahuen CL2, beta- galactosidase strain (Chagas' Disease), [32]–[35], intracellular amastigotes of L. infantum MHOM/MA(BE)/67 (leishmaniasis), [32]–[36], larval and/or adult worms of S. mansoni Puerto Rican strain (schistosomiasis), [31], [37], microfilariae of B. malayi (lymphatic filariasis), [30] and microfilariae of O. ochengi or O. lienalis (onchocerciasis), [30]. It should be noted that the human pathogen for onchocerciasis is Onchocerca volvulus, but due to lack of a suitable in vitro assay or animal models for this pathogen, O. ochengi and lienalis, which are both animal pathogens, are used in the primary and secondary assays, [30].

[3] = tested on: Trypanosoma cruzi, Tulahuen CL2 strain; assay: Antitrypanosomal activity assay, T. cruzi in MRC-5 cells; type: cell-based; conditions: T. cruzi Tulahuen CL2 in MRC-5 cells, 7 days
Description: as §1
171 of the 744 actives passed the initial criterion of IC50<1 µg/ml for T. cruzi Tulahuen CL2, beta galactosidase strain maintained on MRC-5SV2 cells in MEM medium (MRC-5 cell/parasite inoculum: 4.10^3 cells/well+4.10^4 parasites/well), supplemented with […] L-glutamine, 16.5 mM NaHCO3 and 5% heat inactivated fetal calf serum. […] Of these, 109 were eliminated [structures #1–6] for poor selectivity versus mammalian cells (SI<50) and an additional 11 due to undesirable chemical attributes. The remaining 51 compounds were sorted into 10 series (45 compounds) and 6 singletons [structures # 21, 22]. Two of these series with excellent potency against T. cruzi, limited activity against other protozoa and SI values >50 (not shown), have been transferred to DNDi for further evaluation.

[4] = tested on: Trypanosoma brucei brucei Squib-427 strain; assay: Antitrypanosomal activity assay, T. brucei (resazurin); type: cell-based; conditions: T. brucei Squib 427 bloodstream forms, 72 h
Description: as §1

[5] = tested on: Schistosoma mansoni adult worms; assay: Anti-Schistosoma activity assay (adult worm motility); type: cell-based; conditions: S. mansoni adult worms; 12.5 µM (method: 10 µg/ml or 12.5 µM)
Description: as §1
A subset of 9478 of the 10,000 compound collection was tested against the Puerto Rican strain of S. mansoni. 6144 of these were tested in a primary larval assay followed by the ex-vivo adult secondary screen. The remainder was screened only in the adult assay. […] The 65 compounds were sorted by chemical attractiveness, potency against adult schistosomes in culture, selectivity against other parasites, and toxicity to mammalian cells in culture. Based on this analysis, 5 series encompassing 13 compounds were chosen for advancement through the African Network for Drug and Diagnostic Innovation (ANDI) and other PDPs. Representative structures [structures # 13, 27, 28] are shown (Table S1). These compounds are unburdened by obvious toxic moieties, have acceptable compliance with the Lipinski rules, are selectively active against schistosomes and are not overtly toxic to mammalian cells. It has unfortunately not been possible to titrate all of these hits in culture; of about 50% for which such data are available, none has an IC50<2 µg/ml (which is the initial potency criteria).

[6] = tested on: Brugia malayi microfilariae; assay: Anti-Brugia malayi microfilariae motility assay; type: cell-based; conditions: B. malayi microfilariae
Description: as §1
(§2) As result of logistics issues attributed to lost shipments of some compounds, only 6160 molecules of the 10,000 compound set were tested, at a uniform molarity, against B. malayi, including 6063 against microfilariae and 756 against adult worms (these sets overlap). […] Greatest priority was given to compounds with activity against adult worms, as no macrofilaricide is available for use in control campaigns and the activity of ivermectin as a microfilaricidal agent is unlikely to be bettered in a new series. Of the test set, 53 compounds met the activity criterion for microfilariae (100% motility reduction) and an additional 58 inhibited adult worm motility ≥75% at 10 µM. These were titrated to determine an IC50 value to support prioritization. Following cytotoxicity triage [structures # 1, 4, 6], eight compounds met the activity criterion for adult worms (i.e., 100% inhibition of adult worm motility), four of which were also active against microfilariae [structures # 14, 29, 30, 32]. […] Of these, the most interesting was TDR76699 [structure # 29]; this compound has very good activity against adult worms (IC50 = 0.1 µg/ml) and is also active against microfilariae (IC50 = 0.7 µg/ml). None of the other compounds tested against adult parasites had IC50 values ≤0.5 µg/ml, a threshold which would reduce concerns about specificity. However, a few series [structures # 31, 33, 34], appear interesting for future medicinal chemistry projects.

[7] = tested on: Brugia malayi adult worms; assay: Anti-Brugia malayi adult worm motility assay; type: cell-based; conditions: B. malayi adult worms
Excerpt: as §2, with “In some cases, particularly for the antifilarial screens, a second whole organism test with adult stage parasites is included prior to animal evaluation. The decision to utilize microfilariae for primary screening was based on throughput and biological considerations. It is difficult to acquire enough adult filariae to enable screening more than 1000 compounds per year, a rate far lower than needed for timely evaluation of the available compounds. In light of this situation, and considering that we are targeting molecules that are active on both stages, microfilariae screening was adopted as a suitable filter to identify compounds with potential macrofilaricidal activity. As” for “As”, “Of the test set, 53 compounds met the activity criterion for microfilariae (100% motility reduction) and an additional 58 inhibited adult worm motility ≥75% at 10 µM.” left out

[8] = tested on: Onchocerca (lienalis or ochengi) microfilariae; assay: Anti-Onchocerca microfilariae motility assay; type: cell-based, Onchocerca lienalis or O. ochengi
Description: as §1
4240 compound s were screened against O. ochengi at the University of Buea in Cameroon, while a subset of […] compounds was successfully screened in UK by the Northwick Park Institute for Medical Research against O. lienalis, at a uniform molarity. […] After removing molecules that were toxic to mammalian cells (IC50<5 µg/ml), 292 molecules remained for further evaluation. […] From the latter sub-set, […] distinct chemical series and one singleton [structure # 35] were active against both microfilaria and adults. One series [structures # 2, 3] was deemed not interesting due to lack of selectivity against mammalian cells. The remaining series is being transferred to ANDI for further progression as part of a new collaboration.

For `O=C(COc1cccc2c1CCN(Cc1ccccc1F)C2=O)N1CCC(Cc2ccccc2)CC1` [TDR77144], the “CYT IC50” value [1] was 4.56 µg/mL, the “MAL IC50” value [2] was 4.54 µg/mL and the “CHA IC50” value [3] was 0.56 µg/mL. The “HAT IC50” value [4] was 0.47 µg/mL, the “SCH % Motility Reduction at 12.5µM” value [5] was 0% and the “LF/MF % Motility Reduction at 12.5µM” value [6] was 100%. For the same compound, the “LF/AW % Motility Reduction at 12.5µM” value [7] was 100% and the “ONC/MF % Motility Reduction at 12.5µM” value [8] was 0%.

With `COC(=O)c1c(NC(=O)c2cc3ccccc3oc2=O)sc2c1CCN(Cc1ccccc1)C2` [TDR76873] the “CYT IC50” value [1] was 8.92 µg/mL, the “MAL IC50” value [2] was greater than 15.33 µg/mL and the “CHA IC50” value [3] was 0.64 µg/mL. The “HAT IC50” value [4] was greater than 15.33 µg/mL, the “SCH % Motility Reduction at 12.5µM” value [5] was 0% and the “LF/MF % Motility Reduction at 12.5µM” value [6] was 100%. The “LF/AW % Motility Reduction at 12.5µM” value [7] was 100% and the “ONC/MF % Motility Reduction at 12.5µM” value [8] was 40%.

With `O=C(Nc1nc2c(F)cc(F)cc2s1)c1nc2ccccc2s1` [TDR77323] the “CYT IC50” value [1] was greater than 10.42 µg/mL, the “MAL IC50” value [2] was greater than 10.42 µg/mL and the “CHA IC50” value [3] was greater than 10.42 µg/mL. For the same compound, the “SCH % Motility Reduction at 12.5µM” value [5] was 0%, the “LF/MF % Motility Reduction at 12.5µM” value [6] was 100% and the “LF/AW % Motility Reduction at 12.5µM” value [7] was 50%.

`O=C(Nc1nc2c(s1)CSc1ccccc1-2)C1CCCN1S(=O)(=O)c1cccs1` (stereo not drawn) [TDR83016] was tested, and the “CYT IC50” value [1] was 1.88 µg/mL, the “MAL IC50” value [2] was 3.71 µg/mL and the “CHA IC50” value [3] was 0.5 µg/mL. The “HAT IC50” value [4] was 0.45 µg/mL, the “SCH % Motility Reduction at 12.5µM” value [5] was 100% and the “LF/MF % Motility Reduction at 12.5µM” value [6] was 100%. For the same compound, the “LF/AW % Motility Reduction at 12.5µM” value [7] was 0% and the “ONC/MF % Motility Reduction at 12.5µM” value [8] was 100%.

`CCOC(=O)c1ccc(NC(=O)CSc2nnc(NC(=O)C34CC5CC(CC(C5)C3)C4)s2)cc1` [TDR76705] was tested, and the “CYT IC50” value [1] was greater than 15.02 µg/mL, the “MAL IC50” value [2] was greater than 15.02 µg/mL and the “CHA IC50” value [3] was greater than 15.02 µg/mL. For the same compound, the “HAT IC50” value [4] was greater than 15.02 µg/mL, the “SCH % Motility Reduction at 12.5µM” value [5] was 0% and the “LF/MF % Motility Reduction at 12.5µM” value [6] was 100%. For the same compound, the “LF/AW % Motility Reduction at 12.5µM” value [7] was 100% and the “ONC/MF % Motility Reduction at 12.5µM” value [8] was 33.3%.

For `O=C(Nc1nc2c(s1)CSc1ccccc1-2)C1COc2ccccc2O1` (stereo not drawn) [TDR77035], the “CYT IC50” value [1] was 2.62 µg/mL, the “MAL IC50” value [2] was 4.75 µg/mL and the “CHA IC50” value [3] was 0.5 µg/mL. The “HAT IC50” value [4] was 0.37 µg/mL, the “SCH % Motility Reduction at 12.5µM” value [5] was 100% and the “LF/MF % Motility Reduction at 12.5µM” value [6] was 33%. For the same compound, the “LF/AW % Motility Reduction at 12.5µM” value [7] was 0% and the “ONC/MF % Motility Reduction at 12.5µM” value [8] was 100%.

For `CCC(=O)c1c(NC(=O)c2ccc(C)cc2)sc2c1CCN(CC)C2` [TDR76871], the “CYT IC50” value [1] was greater than 11.79 µg/mL, the “MAL IC50” value [2] was 1.87 µg/mL and the “CHA IC50” value [3] was 0.48 µg/mL. The “HAT IC50” value [4] was 0.32 µg/mL, the “SCH % Motility Reduction at 12.5µM” value [5] was 0% and the “LF/MF % Motility Reduction at 12.5µM” value [6] was 33.3%. The “LF/AW % Motility Reduction at 12.5µM” value [7] was 22.3% and the “ONC/MF % Motility Reduction at 12.5µM” value [8] was 0%.

With `Cc1cccc(-n2nc3c(c2NC(=O)Nc2cccc(Cl)c2)CSC3)c1` [TDR76699] the “CYT IC50” value [1] was greater than 11.55 µg/mL, the “MAL IC50” value [2] was greater than 11.55 µg/mL and the “CHA IC50” value [3] was 9.48 µg/mL. For the same compound, the “HAT IC50” value [4] was greater than 11.55 µg/mL, the “SCH % Motility Reduction at 12.5µM” value [5] was 25% and the IC50 microfilariae ([6]; titration) was 0.7 µg/mL (≈ 1.82 µM). The “LF/MF % Motility Reduction at 12.5µM” value [6] was 100%, the IC50 adult worms ([7]; titration) was 0.1 µg/mL (≈ 0.26 µM) and the “LF/AW % Motility Reduction at 12.5µM” value [7] was 100%. The “ONC/MF % Motility Reduction at 12.5µM” value [8] was 33%.

`COc1cccc2sc(Nc3nnc(-c4cccs4)o3)nc12` [TDR77585] was tested, and the “CYT IC50” value [1] was 1.83 µg/mL, the “MAL IC50” value [2] was 1.25 µg/mL and the “CHA IC50” value [3] was 0.31 µg/mL. For the same compound, the “HAT IC50” value [4] was 0.35 µg/mL, the “SCH % Motility Reduction at 12.5µM” value [5] was 0% and the “LF/MF % Motility Reduction at 12.5µM” value [6] was 100%. For the same compound, the “LF/AW % Motility Reduction at 12.5µM” value [7] was 50%.

For `CN(C)CCN(C(=O)c1cccc(N2C(=O)CCC2=O)c1)c1nc2ccc(Br)cc2s1` [TDR79337], the “CYT IC50” value [1] was greater than 16.14 µg/mL, the “MAL IC50” value [2] was 1.45 µg/mL and the “CHA IC50” value [3] was 4.94 µg/mL. The “HAT IC50” value [4] was 0.36 µg/mL, the “SCH % Motility Reduction at 12.5µM” value [5] was 33% and the “LF/AW % Motility Reduction at 12.5µM” value [7] was 0%. The “ONC/MF % Motility Reduction at 12.5µM” value [8] was 0%.
